Measurements published in PMC8908036, “N-Acetyldopamine dimers from Oxya chinensis sinuosa attenuates lipopolysaccharides induced inflammation and inhibits cathepsin C activity” (Computational and Structural Biotechnology Journal, 2022).

Target: T1, cathepsin C (Mus musculus, UniProt P97821)
T1 construct: gene Ctsc
Experiment: colorimetric enzyme inhibition with H-Gly-Phe-β-naphthylamide; Lineweaver-Burk kinetics and secondary plots (IC50 […]; Kis […])
Format: biochemical

T1 sequence (P97821 25-134): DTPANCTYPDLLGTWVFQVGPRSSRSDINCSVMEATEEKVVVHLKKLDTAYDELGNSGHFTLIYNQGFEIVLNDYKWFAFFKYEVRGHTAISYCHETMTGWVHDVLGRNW
T1 sequence (P97821 231-462): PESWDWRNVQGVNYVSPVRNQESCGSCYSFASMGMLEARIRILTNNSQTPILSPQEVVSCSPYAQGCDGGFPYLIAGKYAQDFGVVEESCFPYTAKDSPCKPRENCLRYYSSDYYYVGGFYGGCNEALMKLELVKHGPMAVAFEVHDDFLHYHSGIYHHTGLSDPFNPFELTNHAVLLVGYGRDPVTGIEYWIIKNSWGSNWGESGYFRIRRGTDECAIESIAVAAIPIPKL

Compound `CC(=O)NCCc1ccc2c(c1)O[C@H](c1ccc(O)c(O)c1)[C@@H](NC(C)=O)O2` [compound 1, (2R,3S)-2-(3′,4′-dihydroxyphenyl)-3-acetylamino-7-(N-acetyl-2″-aminoethyl)-1,4-benzodioxane] has a Ki of 71.6 ± 10.2 µM.
